We go through four molecules from patent US20250243520A1, “PRODUCTION METHOD FOR L-CYCLIC AMINO ACIDS” (UBE CORPORATION, priority 2019, published 2025).

Experiment [1] has as its target T1, Pseudomonas putida PipC2 reductase dpkA (Pseudomonas putida, UniProt Q5FB93). The experiment is described as follows: Literature kinetics of PipC2 reductase dpkA (Muramatsu et al., 2005). It is filed as biochemical. The settings on record: Table 5; literature value; molecular weight 35954.
The subject of experiment [2] is Morus alba imino acid (imine) reductase MaP2CR, GST-fused, SEQ ID NO: 10 (MaP2CR: SEQ ID NO: 4). The experiment is described as follows: Analysis of enzymatic catalytic activity: reduction of PipC2 with varied NADPH, absorbance at 340 nm (MaP2CR). It is filed as biochemical.
The target of experiment [3] is T1, Pseudomonas putida PipC2 reductase dpkA. Set-up: NADP Vmax: unit not given here. The settings on record: cited from earlier work.
In experiment [4] the test system is Lathyrus japonicus imino acid (imine) reductase LjP2CR, GST-fused, SEQ ID NO: 12 (LjP2CR: SEQ ID NO: 6). The experiment is described as follows: Analysis of enzymatic catalytic activity: reduction of PipC2 with varied NADPH, absorbance at 340 nm (LjP2CR). The format is biochemical.
Experiment [5] is described as follows: Enzyme reaction with PipC2 enzyme synthesis solution and *NADPH; products analysed by LCMS and chiral HPLC. The format is biochemical. The settings on record: 10 mM *NADPH, 30° C., 120 minutes. The method, then:
An enzyme reaction was carried out using each enzyme solution (purified P2CR recombinant enzyme solution) obtained in Example 1. The reaction was carried out using a 1.5 mL Eppendorf tube as the reaction vessel, and using each enzyme reaction solution in a volume of 100 μL. Since PipC2 which serves as the substrate is not commercially available, one obtained from L-lysine by enzyme synthesis, using the aminotransferase MaALDI obtained in Reference Example 1 to be described later, was used.
The enzyme reaction was carried out using a shaking incubator (manufactured by AS ONE Corporation), at a reaction temperature of 30° C. with shaking at 1,000 rpm. The reaction time was set to 120 minutes. Heating was performed at a reaction temperature of 98° C. for five minutes to inactivate the enzyme, and the reaction was terminated. Subsequently, the reaction solution was centrifuged at 15,000 rpm at room temperature for 10 minutes, and the resulting supernatant was used as a PipC2 enzyme synthesis solution.
Thereafter, the reaction was carried out under the same conditions as the reaction using the enzyme MaALDI described above, to obtain an enzyme reaction product.
Each of the enzyme reaction products was analyzed by liquid chromatography-mass spectrometry (LCMS). First, each sample (enzyme reaction product) was subjected to a derivatization treatment. Using AccQ·Tag Ultra Derivatization Kit (manufactured by Waters Corporation), a mixture of each sample was prepared according to the composition shown in Table 3. The derivatizating reagent solution was added at last. After mixing, the mixture was incubated at 55° C. for 10 minutes.
Each sample which had been subjected to the derivatization treatment was diluted two-fold with pure water, and used as a sample for LCMS analysis.
When the activities of the enzyme reaction products were analyzed by LCMS analysis, it was confirmed that the products had the same retention time as that of L-PipA as the standard, and that novel peaks of the MS pattern were observed. Further, it was unable to detect PipA in the control. […]

Where [6] appears, read: Table 5, values determined by ANEMONA, GST-fused protein.
The mark [7] stands for this setting: Table 5, values determined by ANEMONA, GST-fused protein, read-out: NADP Km.

The Vmax is the top rate of the reaction or transport when substrate is in excess. One may read the Km as the substrate concentration at which the rate is half of its maximum.

Read-outs that look alike come from different tables or passages of the source.

T1 sequence (Q5FB93 whole entry, the tested form may be a part): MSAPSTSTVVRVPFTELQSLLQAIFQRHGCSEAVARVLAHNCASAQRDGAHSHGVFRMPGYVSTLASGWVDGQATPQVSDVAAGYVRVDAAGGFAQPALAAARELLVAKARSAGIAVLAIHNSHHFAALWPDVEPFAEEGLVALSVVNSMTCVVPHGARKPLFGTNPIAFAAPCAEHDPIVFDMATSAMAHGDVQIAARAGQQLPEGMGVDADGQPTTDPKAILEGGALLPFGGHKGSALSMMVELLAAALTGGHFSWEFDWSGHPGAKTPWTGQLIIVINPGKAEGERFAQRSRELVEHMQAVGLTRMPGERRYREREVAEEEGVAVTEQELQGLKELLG

For the molecule `NC(=O)C1=CN([C@@H]2O[C@H](COP(=O)(O)OP(=O)(O)OC[C@H]3O[C@@H](n4cnc5c(N)ncnc54)[C@H](OP(=O)(O)O)[C@@H]3O)[C@@H](O)[C@H]2O)C=CC1` [NADPH, reduced nicotinamide adenine dinucleotide phosphate], the “Activity per one molecule of enzyme kcat” value is 0.132 s⁻¹ in experiment [1]; 0.0217 s⁻¹ in experiment [2] (Table 5, GST-fused protein, molecular weight 61792); 0.198 s⁻¹ in experiment [4] (Table 5, GST-fused protein, molecular weight 63449). The Vmax in experiment [2] (Hanes-Woolf plot, NADPH 0.5-80 μM, Tris-HCl pH 7.2) was 24.00 nmol/min/mg; in experiment [2] (nonlinear regression by ANEMONA, NADPH 0.5-80 μM, Tris-HCl pH 7.2), 21.2 nmol/min/mg; in experiment [3] (Muramatsu et al. 2005) it was 220 nmol/min/mg; in experiment [4] (Hanes-Woolf plot, NADPH 10-500 μM, Tris-HCl pH 7.2), 199.55 nmol/min/mg; in experiment [4] (nonlinear regression by ANEMONA, NADPH 10-500 μM, Tris-HCl pH 7.2), 187.3 nmol/min/mg. Moreover, the Km was 6.16 µM in experiment [2] (Hanes-Woolf plot, NADPH 0.5-80 μM, Tris-HCl pH 7.2, read-out: Km); 3.6 µM in experiment [2] (setting [7]); 3.57 µM in experiment [2] (nonlinear regression by ANEMONA, NADPH 0.5-80 μM, Tris-HCl pH 7.2, read-out: Km); 140 µM in experiment [3] (Muramatsu et al. 2005, read-out: Km); 140 µM in experiment [3] (Table 5, literature value, read-out: NADP Km); 170 µM in experiment [4] (Hanes-Woolf plot, NADPH 10-500 μM, Tris-HCl pH 7.2, read-out: Km). Also, the Km in experiment [4] (setting [7]) was found to be 155 µM; in experiment [4] (nonlinear regression by ANEMONA, NADPH 10-500 μM, Tris-HCl pH 7.2, read-out: Km), 155 µM. Also, the “NADP Vmax” value is reported as 21 in experiment [2] (setting [6]); 220 in experiment [3] (Table 5, literature value); 187 in experiment [4] (setting [6]).

B1: LjP2CR: imino acid reductase derived from Lathyrus japonicus, SEQ ID NO: 6; GST-fused form SEQ ID NO: 12 (protein, listed as Lathyrus japonicus)
chain: MASANKDQKTTNTVSSSSSSSSPIFISTENLQTILTHQTLMKHIDSNLPKVSTFLQTPIRQHYSLSPSSSLLLMPSWSSSSSFPYVGVKLVTHFPQNSSINLPGVQGSYVLFNSTTGQTLASMDSTELTLYRTSCVSGLASRYLSRDDSEVLVMVGAGPLAPHLIRAHFSARPSLRKVLIWNRTVEKAEALAKNLRESDEFSLSGLSFEGCGCLNEVVGLGDIVSCATNSEMALVKGERLKVGAHLDLVGSFKPSMKECDDEALKRGKVFVDNEAALVEAGELVGAFERGVIKEDEIEANLVELIRGDKVGRRSSEEITVFKSVGSAVVDMLAAQFVYESYIGK
Regarding B1, the “ability to reduce PipC2 to convert to PipA (LCMS of enzyme reaction products)” value (shortened to “ability to reduce PipC2 to convert”) in experiment [5] is “have the ability to reduce PipC2 to convert to PipA”.

B2: MaP2CR: imino acid reductase derived from Morus alba, SEQ ID NO: 4; GST-fused form SEQ ID NO: 10 (protein, listed as Morus alba)
chain: MASTTTAITSPIFITTQSFHTILSRQTLMDHFHSSLPTVSASLSTPLRQNHAVSPTSSLLLMPSWSTSPSLPYIGVKLVTYFPQSSTLSLPGIHASYVLFSSATGQTLASMDGTALTLFRTSCVSGLASRILARDDSKVLVMIGAGALAPHLIKAHLTARPGLERVVIWNRTVEKARNLAEQLQQSSGLDGVCFESNGCLEEVVGMGDIVSCATNSEAPLVKGQKLKPGAHLDLVGSFKHSMRECDDEAIQRGRIFVDNEAALVEAGELVGAFERGVITKEDIGGNLVELIMGEKVGRRDSEEVTVFKSVGSAAVDILAAQLVYETYLQQNN
Regarding B2, the “ability to reduce PipC2 to convert” value in experiment [5] was “have the ability to reduce PipC2 to convert to PipA”.

B3: AtP2CR: imino acid reductase derived from Arabidopsis thaliana, SEQ ID NO: 2; GST-fused form SEQ ID NO: 8 (protein, listed as Arabidopsis thaliana)
chain: MAALPVFIPAESFPSILSHETLINHFRTNLPKHSSTITSPVRQNYTVSSPSSLLLMPSWSSSSSLPYMGVKLVTYFPHNSSQNLPGIHGSYTLFSSTTGQTLATMDGTVLTLYRTSSVSGLGSKILARDDSQVLIMVGSGALAPHLIKSHLAARPSLRRVIIWNRTPQRAQELAETLSKDPQHKEISFDSHDSLDQIIPLGDIISCATNSTVPLVKGEFLKPGTHLDLAGSFSHEMKECDDNAIQRGSVFVDNDTAMIEAGELAGAFERGVIKREDICGNLVELIKGDKEGRKSSTDITVFKSVGSGTVDLLTAQLVHETYLSRC
Take B3: in experiment [5], the “ability to reduce PipC2 to convert” value is reported as “have the ability to reduce PipC2 to convert to PipA”.
